Experimental data as given in ChEMBL document CHEMBL5034015, “Structure-Based Optimization of 3-Phenyl-N-(2-(3-phenylureido)ethyl)thiophene-2-sulfonamide Derivatives as Selective Mcl-1 Inhibitors” (J Med Chem, 2021).
The source made the active and inactive calls. Unless noted, no cut-off for these calls is given here.

How the values were obtained:
Bcl-2-like protein 1 [1] = target: T1, Bcl-2-like protein 1 (Homo sapiens, UniProt Q07817); assay: Binding affinity to full length human Bcl-xl expressed in Escherichia coli BL21 (DE3) assessed as inhibition constant preincubated for 30 mins followed by 5-FAM-QEDIIIINIARHLAQVGDSMD-RSIPPG tracer addition and measured after 20 mins by fluorescence polarization assay
[2] = target: T2, Apoptosis regulator Bcl-2 (Homo sapiens, UniProt P10415); assay: Binding affinity to full length human Bcl-2 expressed in Escherichia coli BL21 (DE3) assessed as inhibition constant preincubated for 30 mins followed by 5-FAM-QEDIIIINIARHLAQVGDSMD-RSIPPG tracer addition and measured after 20 mins by fluorescence polarization assay
[3] = target: T3, Induced myeloid leukemia cell differentiation protein Mcl-1 (Homo sapiens, UniProt Q07820); assay: Binding affinity to full length human MCL1 expressed in Escherichia coli BL21 (DE3) assessed as inhibition constant preincubated for 30 mins followed by 5-FAM-QEDIIIINIARHLAQVGDSMD-RSIPPG tracer addition and measured after 20 mins by fluorescence polarization assay
HEK-293T = assay: Cytotoxicity against HEK293T cells assessed as reduction in cell viability incubated for 48 hrs by CCK8 assay; details: Homo sapiens
HeLa [4] = assay: cells; details: Homo sapiens, 48 h
Description: Cytotoxicity against human HeLa cells assessed as inhibition of cell growth incubated for 48 hrs by CCK8 assay

HL-60 = assay: cells; details: Homo sapiens, HL-60, 48 h
Description: Cytotoxicity against human HL-60 cells assessed as inhibition of cell growth incubated for 48 hrs by CCK8 assay

RS4-11 = assay: cells; details: Homo sapiens, RS4-11, 48 h
Description: Cytotoxicity against human RS4-11 cells assessed as inhibition of cell growth incubated for 48 hrs by CCK8 assay

Bcl-2-like protein 1 [5] = target: T1, Bcl-2-like protein 1; assay: Binding affinity to full length human Bcl-xl expressed in Escherichia coli BL21 (DE3) at 100 uM preincubated for 30 mins followed by 5-FAM-QEDIIIINIARHLAQVGDSMD-RSIPPG tracer addition and measured after 20 mins by fluorescence polarization assay relative to control; details: time 50.0 min
[6] = target: T2, Apoptosis regulator Bcl-2; assay: Binding affinity to full length human Bcl-2 expressed in Escherichia coli BL21 (DE3) at 100 uM preincubated for 30 mins followed by 5-FAM-QEDIIIINIARHLAQVGDSMD-RSIPPG tracer addition and measured after 20 mins by fluorescence polarization assay relative to control; details: time 50.0 min
[7] = target: T3, Induced myeloid leukemia cell differentiation protein Mcl-1; assay: Binding affinity to full length human MCL1 expressed in Escherichia coli BL21 (DE3) at 100 uM preincubated for 30 mins followed by 5-FAM-QEDIIIINIARHLAQVGDSMD-RSIPPG tracer addition and measured after 20 mins by fluorescence polarization assay relative to control; details: time 50.0 min
HeLa [8] = assay: Cytotoxicity against human HeLa cells assessed as cell viability at 20 uM incubated for 48 hrs by CCK8 assay relative to control; assay type: functional; details: read-out: Activity
[9] = Cytotoxicity against HEK293T cells assessed as cell viability at 20 uM incubated for 48 hrs by CCK8 assay relative to control; assay type: cell-based, HEK-293T; details: human, read-out: Activity
Bcl-2-like protein 1 [10] = target: T1, Bcl-2-like protein 1; assay: Binding affinity to full length human Bcl-xl expressed in Escherichia coli BL21 (DE3) at up to 100 uM preincubated for 30 mins followed by 5-FAM-QEDIIIINIARHLAQVGDSMD-RSIPPG tracer addition and measured after 20 mins by fluorescence polarization assay; details: dose microM <=100, time 50.0 min
[11] = target: T3, Induced myeloid leukemia cell differentiation protein Mcl-1; assay: Binding affinity to 15N-labeled human MCL1 (172 to 327 residues) expressed in Escherichia coli BL21 (DE3) assessed as chemical shift at H224 residue at 0.3 mM incubated for 1 hr by 15N HSQC NMR spectroscopy analysis
[12] = target: T3, Induced myeloid leukemia cell differentiation protein Mcl-1; assay: Binding affinity to 15N-labeled human MCL1 (172 to 327 residues) expressed in Escherichia coli BL21 (DE3) assessed as chemical shift at F228 residue at 0.3 mM incubated for 1 hr by 15N HSQC NMR spectroscopy analysis
[13] = target: T3, Induced myeloid leukemia cell differentiation protein Mcl-1; assay: Binding affinity to 15N-labeled human MCL1 (172 to 327 residues) expressed in Escherichia coli BL21 (DE3) assessed as chemical shift at M231 residue at 0.3 mM incubated for 1 hr by 15N HSQC NMR spectroscopy analysis
[14] = target: T3, Induced myeloid leukemia cell differentiation protein Mcl-1; assay: Binding affinity to 15N-labeled human MCL1 (172 to 327 residues) expressed in Escherichia coli BL21 (DE3) assessed as chemical shift at L235 residue at 0.3 mM incubated for 1 hr by 15N HSQC NMR spectroscopy analysis
[15] = target: T3, Induced myeloid leukemia cell differentiation protein Mcl-1; assay: Binding affinity to 15N-labeled human MCL1 (172 to 327 residues) expressed in Escherichia coli BL21 (DE3) assessed as chemical shift at M250 residue at 0.3 mM incubated for 1 hr by 15N HSQC NMR spectroscopy analysis
[16] = target: T3, Induced myeloid leukemia cell differentiation protein Mcl-1; assay: Binding affinity to 15N-labeled human MCL1 (172 to 327 residues) expressed in Escherichia coli BL21 (DE3) assessed as chemical shift at R263 residue at 0.3 mM incubated for 1 hr by 15N HSQC NMR spectroscopy analysis
[17] = target: T2, Apoptosis regulator Bcl-2; assay: Binding affinity to full length human Bcl-2 expressed in Escherichia coli BL21 (DE3) at up to 100 uM preincubated for 30 mins followed by 5-FAM-QEDIIIINIARHLAQVGDSMD-RSIPPG tracer addition and measured after 20 mins by fluorescence polarization assay; details: dose microM <=100, time 50.0 min
[18] = target: T3, Induced myeloid leukemia cell differentiation protein Mcl-1; assay: Binding affinity to full length human MCL1 expressed in Escherichia coli BL21 (DE3) at up to 100 uM preincubated for 30 mins followed by 5-FAM-QEDIIIINIARHLAQVGDSMD-RSIPPG tracer addition and measured after 20 mins by fluorescence polarization assay; details: dose microM <=100, time 50.0 min

T2 sequence (P10415 whole entry): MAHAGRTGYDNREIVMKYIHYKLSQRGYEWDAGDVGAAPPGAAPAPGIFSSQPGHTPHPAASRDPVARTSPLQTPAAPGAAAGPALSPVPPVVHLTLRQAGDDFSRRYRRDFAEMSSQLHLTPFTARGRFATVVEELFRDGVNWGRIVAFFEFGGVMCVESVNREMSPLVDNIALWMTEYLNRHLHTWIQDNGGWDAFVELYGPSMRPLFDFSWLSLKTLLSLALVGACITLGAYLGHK
T3 sequence (Q07820 whole entry): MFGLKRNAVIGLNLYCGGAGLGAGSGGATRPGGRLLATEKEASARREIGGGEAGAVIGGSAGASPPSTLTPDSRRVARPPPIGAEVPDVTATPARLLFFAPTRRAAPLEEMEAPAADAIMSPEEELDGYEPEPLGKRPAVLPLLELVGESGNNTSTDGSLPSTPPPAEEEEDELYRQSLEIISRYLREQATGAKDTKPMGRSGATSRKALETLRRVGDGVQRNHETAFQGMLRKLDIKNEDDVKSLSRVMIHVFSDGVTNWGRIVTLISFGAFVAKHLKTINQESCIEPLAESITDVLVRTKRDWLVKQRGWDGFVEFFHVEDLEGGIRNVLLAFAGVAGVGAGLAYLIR
T1 sequence (Q07817 whole entry): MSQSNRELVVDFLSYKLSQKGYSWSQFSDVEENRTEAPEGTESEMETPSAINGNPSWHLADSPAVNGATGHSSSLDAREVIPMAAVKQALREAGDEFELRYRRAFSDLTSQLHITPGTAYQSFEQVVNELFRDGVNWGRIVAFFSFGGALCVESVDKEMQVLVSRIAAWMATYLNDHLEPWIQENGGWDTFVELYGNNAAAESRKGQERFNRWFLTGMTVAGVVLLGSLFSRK

SMILES	Ki (Bcl-2-like protein 1 [1]) [µM]	Ki [2] [µM]	Ki [3] [µM]	IC50 (HEK-293T) [µM]	IC50 (HeLa [4]) [µM]	IC50 (HL-60) [µM]	IC50 (RS4-11) [µM]	Activity (Bcl-2-like protein 1 [10])	Activity [17]	further results
O=S(=O)(NCCNC(=S)Nc1cc(C(F)(F)F)cc(C(F)(F)F)c1)c1ccc(-c2ccccc2Oc2ccc(O)c(O)c2)s1	0.93	2.6	0.37	12.3	> 20	18.3	10.3			
O=[N+]([O-])c1ccc(NC(=S)N2CCN(S(=O)(=O)c3sccc3-c3ccccc3Oc3ccc(O)c(O)c3)CC2)cc1				> 20		5.3	9			inhibition (Bcl-2-like protein 1 [5]): 28%; inhibition [6]: 31%; inhibition [7]: 81%; viability at 20 µM (HeLa [8]): 49%
Cc1ccc(-c2ccsc2S(=O)(=O)NCCNC(=O)Nc2ccc([N+](=O)[O-])cc2)c(Oc2ccc(O)c(O)c2)c1		13	7.1		> 20	3.9	7.7	inactive		viability at 48 h, 20 µM [9]: 48%
O=[N+]([O-])c1ccc(Oc2ccc(O)c(O)c2)c(-c2ccsc2S(=O)(=O)N2CCN(C(=S)Nc3cc(C(F)(F)F)cc(C(F)(F)F)c3)CC2)c1				> 20	> 20	8.4	9.5			inhibition (Bcl-2-like protein 1 [5]): 14%; inhibition [6]: 12%; inhibition [7]: 52%; Activity [11]: Active; Activity [12]: Active; Activity [13]: Active; Activity [14]: Active; Activity [15]: Active; Activity [16]: Active
CC(C)c1ccc(Oc2ccc(O)c(O)c2)c(-c2ccsc2S(=O)(=O)NCCNC(=S)Nc2cc(C(F)(F)F)cc(C(F)(F)F)c2)c1	4.9	2.4	2.1	18.1	> 20	8.2	3.7			Activity [11]: Active; Activity [12]: Active; Activity [13]: Active; Activity [14]: Active; Activity [15]: Active; Activity [16]: Active
O=C(NCCNS(=O)(=O)c1ccc(-c2ccccc2O[C@H]2CC[C@H](O)CC2)s1)Nc1cc(C(F)(F)F)cc(C(F)(F)F)c1					> 20	7.1	10.1	inactive	inactive	viability at 48 h, 20 µM [9]: 50%; Activity [18]: inactive
O=C(NCCNS(=O)(=O)c1ccc(-c2ccccc2OCc2ccccc2)s1)Nc1cc(Cl)cc(Cl)c1					> 20	11.7	> 20	inactive	inactive	viability at 48 h, 20 µM [9]: 41%; Activity [18]: inactive
O=[N+]([O-])c1ccc(NC(=S)NCCNS(=O)(=O)c2ccc(-c3ccccc3OCc3cccc(O)c3)s2)cc1				> 20		10.8	10.1	inactive	inactive	Activity [18]: inactive; viability at 20 µM (HeLa [8]): 28%
O=C(NCCNS(=O)(=O)c1ccc(-c2ccccc2Oc2ccc(O)c(O)c2)s1)Nc1cc(Cl)cc(Cl)c1	1.7	3.6	0.94	12.4	> 20	10.4	4.5			
O=C(NCCNS(=O)(=O)c1ccc(-c2ccccc2Oc2ccc(O)c(O)c2)s1)Nc1cc(C(F)(F)F)cc(C(F)(F)F)c1	1.5	3.9	0.42	17.1	> 20	10.5	4.9			
O=C(NCCNS(=O)(=O)c1cc(-c2ccccc2Oc2ccc(O)c(O)c2)cs1)Nc1cc(Cl)cc(Cl)c1	1.7	8.4	0.77	> 20	> 50	> 20	> 50			
Cc1nn(C)c(COc2ccc(N3CCN(S(=O)(=O)N(C)C)CC3)cc2)c1-c1cccc2c(CCCOc3cccc4ccccc34)c(C(=O)O)n(CCN3CCOCC3)c12			< 0.001	> 20	> 20	2.46	7.31	inactive	inactive	Activity [11]: Active; Activity [12]: Active; Activity [13]: Active; Activity [14]: Active; Activity [15]: Active; Activity [16]: Active
Cc1ccc(-c2ccsc2S(=O)(=O)NCCNC(=S)Nc2cccc([N+](=O)[O-])c2)c(Oc2ccc(O)c(O)c2)c1			7.5	7.9		3.4	6.1	inactive	inactive	viability at 20 µM (HeLa [8]): 40%
O=C(NCCNS(=O)(=O)c1cc(-c2ccccc2Oc2ccc(O)c(O)c2)cs1)Nc1cc(C(F)(F)F)cc(C(F)(F)F)c1	1.7	5.2	0.51	> 50	> 20	1.3	3.9			
O=S(=O)(NCCNC(=S)Nc1cc(C(F)(F)F)cc(C(F)(F)F)c1)c1cc(-c2ccccc2Oc2ccc(O)c(O)c2)cs1	1	4.6	0.32	> 20	> 20	0.6	4.5			
